Data as given in patent US20160355530A1, “HEPATITIS C INHIBITORS AND USES THEREOF” (AbbVie Inc., priority 2010, published 2016).
Like-named read-outs stand apart in the source and are kept apart here.

Assays:
[1] = system: HCV 1b-BB7 subgenomic replicon; assay: microbe, parasite or virus in culture; format: cell-based, HCV genotype 1b; conditions: Hepatitis C virus, stable replicon
[2] = system: chimeric replicon with 2a-J6CF-derived NS5B; assay: microbe, parasite or virus in culture; format: cell-based, HCV genotype 2a; conditions: Hepatitis C virus, read-out: 2a chimera 5% FBS EC50
[3] = system: chimeric replicon with genotype 4a NS5B; assay: microbe, parasite or virus in culture; format: cell-based, HCV genotype 4a; conditions: Hepatitis C virus, read-out: 4a chimera 5% FBS EC50
[4] = system: chimeric replicon with genotype 3a NS5B; assay: microbe, parasite or virus in culture; format: cell-based, HCV genotype 3a; conditions: Hepatitis C virus, read-out: 3a chimera 5% FBS EC50
[5] = target: T1, HCV NS5B polymerase 1b BK strain (Hepatitis C virus genotype 1b, UniProt P26663); assay: HCV NS5B polymerase enzymatic inhibition assay, strain 1b BK; format: biochemical; conditions: enzyme, strain 1b BK; read-out: HCV Polymerase Strain 1b BK IC50
T1 construct: six-histidine tag; made in house; host or cells: E. coli
Procedure, shortened: (§1)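 E. coli-expressed NS5B (residues 1-570, His-tagged) transcribed a 2.1 kb HCV 1b negative-strand 3′-end RNA template (5 nM) with 20 μM CTP, 20 μM ATP and 0.284 μM [3H]UTP for 3 h at 30° C. Spermine-precipitated RNA was filter-captured and counted by scintillation; IC50 from nonlinear regression.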

[6] = system: HCV 1a-H77 subgenomic replicon; assay: microbe, parasite or virus in culture; format: cell-based, HCV genotype 1a; conditions: Hepatitis C virus, stable replicon
[7] = system: HCV NS5B polymerase 1a-H77-C316Y; assay: biochemical; design: species or system HCV genotype 1a; conditions: ratio of enzyme IC50s, 1a H77-C316Y / 1a H77
Procedure, shortened: as §1

[8] = target: T2, HCV NS5B polymerase 1a-H77 (Hepatitis C virus genotype 1a, UniProt P27958); assay: biochemical; design: species or system HCV genotype 1a; conditions: enzyme, strain 1a H77; read-out: HCV Polymerase Strain 1a H77 IC50
T2 construct: six-histidine tag; made in house; host or cells: E. coli
Procedure, shortened: as §1

[9] = target: T3, HCV NS5B polymerase 1a-H77-C316Y (Hepatitis C virus genotype 1a, UniProt P27958, C2736Y); assay: biochemical; design: species or system HCV genotype 1a
T3 construct: six-histidine tag; made in house; host or cells: E. coli
Procedure, shortened: as §1

[10] = system: chimeric replicon with genotype 2b NS5B; assay: microbe, parasite or virus in culture; format: cell-based, HCV genotype 2b; conditions: Hepatitis C virus, read-out: 2b chimera 5% FBS EC50
[11] = strain 1b BB7, 5% FBS + 40% human plasma, read-out: 1b BB7 5% FBS + 40% Human Plasma EC50
[12] = strain 1b BB7, 5% FBS, no human plasma, read-out: 1b BB7 5% FBS EC50
[13] = strain 1b BB7, 5% FBS, read-out: 1b BB7 5% FBS EC50
[14] = 5% FBS, absence of human plasma, read-out: Stable Replicon 1a H77 5% FBS EC50
[15] = strain 1a H77, 5% FBS + 40% human plasma, read-out: 1a H77 5% FBS + 40% Human Plasma EC50
[16] = strain 1a H77, 5% FBS, no human plasma, read-out: 1a H77 5% FBS EC50
[17] = strain 1a H77, 5% FBS, read-out: 1a H77 5% FBS EC50

T1 sequence (P26663 2420-2989): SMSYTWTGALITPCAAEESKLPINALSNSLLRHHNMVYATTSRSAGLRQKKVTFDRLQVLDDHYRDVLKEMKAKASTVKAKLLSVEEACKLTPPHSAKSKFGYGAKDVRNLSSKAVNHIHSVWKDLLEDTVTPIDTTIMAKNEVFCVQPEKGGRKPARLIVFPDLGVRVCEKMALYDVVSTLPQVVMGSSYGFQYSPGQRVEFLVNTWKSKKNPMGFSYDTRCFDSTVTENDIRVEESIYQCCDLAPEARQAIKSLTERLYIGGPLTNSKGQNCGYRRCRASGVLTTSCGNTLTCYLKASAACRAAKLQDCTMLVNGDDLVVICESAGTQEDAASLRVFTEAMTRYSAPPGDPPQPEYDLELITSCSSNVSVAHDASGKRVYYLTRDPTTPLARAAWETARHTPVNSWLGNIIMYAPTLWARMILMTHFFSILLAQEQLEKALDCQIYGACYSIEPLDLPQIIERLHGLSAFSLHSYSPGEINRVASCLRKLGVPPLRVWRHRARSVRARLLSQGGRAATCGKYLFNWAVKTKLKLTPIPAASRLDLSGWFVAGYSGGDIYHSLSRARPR
T2 sequence (P27958 2421-2990): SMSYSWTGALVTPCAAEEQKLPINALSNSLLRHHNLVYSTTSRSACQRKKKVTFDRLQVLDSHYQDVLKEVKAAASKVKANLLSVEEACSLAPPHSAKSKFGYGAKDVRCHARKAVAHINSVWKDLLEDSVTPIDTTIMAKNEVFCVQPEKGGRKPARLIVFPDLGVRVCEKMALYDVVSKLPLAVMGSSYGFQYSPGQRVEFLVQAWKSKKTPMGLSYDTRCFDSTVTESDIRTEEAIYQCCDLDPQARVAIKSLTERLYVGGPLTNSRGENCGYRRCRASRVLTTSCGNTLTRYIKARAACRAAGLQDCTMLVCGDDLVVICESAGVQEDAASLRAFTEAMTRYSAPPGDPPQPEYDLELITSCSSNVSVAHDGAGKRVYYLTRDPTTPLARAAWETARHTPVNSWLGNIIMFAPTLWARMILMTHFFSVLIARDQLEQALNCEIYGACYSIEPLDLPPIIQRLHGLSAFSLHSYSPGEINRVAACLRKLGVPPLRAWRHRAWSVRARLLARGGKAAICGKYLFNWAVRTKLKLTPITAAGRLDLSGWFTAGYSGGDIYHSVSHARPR
T3 sequence (P27958 2421-2990 C2736Y): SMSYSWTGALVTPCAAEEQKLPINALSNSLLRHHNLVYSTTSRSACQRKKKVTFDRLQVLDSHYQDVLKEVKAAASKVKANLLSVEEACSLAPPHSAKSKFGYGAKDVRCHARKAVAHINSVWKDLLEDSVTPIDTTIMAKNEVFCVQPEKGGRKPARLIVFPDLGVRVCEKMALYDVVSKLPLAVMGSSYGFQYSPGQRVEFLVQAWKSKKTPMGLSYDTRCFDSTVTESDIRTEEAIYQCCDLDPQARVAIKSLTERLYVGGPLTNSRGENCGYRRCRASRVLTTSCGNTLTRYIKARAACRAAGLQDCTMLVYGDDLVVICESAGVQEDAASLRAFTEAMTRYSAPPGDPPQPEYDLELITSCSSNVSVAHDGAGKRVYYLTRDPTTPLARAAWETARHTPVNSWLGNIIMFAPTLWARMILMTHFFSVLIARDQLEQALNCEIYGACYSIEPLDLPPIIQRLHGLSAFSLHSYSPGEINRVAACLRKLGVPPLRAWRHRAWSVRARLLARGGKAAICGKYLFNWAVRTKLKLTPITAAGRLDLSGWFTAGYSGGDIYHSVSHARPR

SMILES	EC50 [1, 11]	EC50 [1, 12]	EC50 [1, 13]	EC50 [2]	EC50 [3]	EC50 [4]	IC50 [5]	EC50 [6, 14]	EC50 [6, 15]	EC50 [6, 16]	EC50 [6, 17]	C316Y/1a Fold Resistance [7]	IC50 [8]	IC50 [9]	EC50 [10]
CS(=O)(=O)N(CCCc1nnn[nH]1)c1cc2oc(-c3ccc(F)cc3)c(-c3ncc[nH]3)c2cc1C1CC1 [Example 174, N-[5-cyclopropyl-2-(4-fluorophenyl)-3-(1H-imidazol-2-yl)-1-benzofuran-6-yl]-N-[3-(1H-tetrazol-5-yl)propyl]methanesulfonamide]	3690 nM	192 nM	192 nM	1000 nM	> 1000 nM	290 nM	18.6 nM	320 nM	4780 nM	320 nM	320 nM	12 fold	3.5 nM	40 nM	1000 nM
CS(=O)(=O)N(CCCc1noc(=O)[nH]1)c1cc2oc(-c3ccc(F)cc3)c(-c3ncc[nH]3)c2cc1C1CC1 [Example 175, N-[5-cyclopropyl-2-(4-fluorophenyl)-3-(1H-imidazol-2-yl)-1-benzofuran-6-yl]-N-[3-(5-oxo-4,5-dihydro-1,2,4-oxadiazol-3-yl)propyl]methanesulfonamide]	570 nM	62 nM	62 nM	660 nM	407 nM	62 nM	25 nM	79 nM	1180 nM	79 nM	79 nM	7 fold	6 nM	43 nM	723 nM
CS(=O)(=O)N(CCC/C(N)=N/O)c1cc2oc(-c3ccc(F)cc3)c(-c3ncc[nH]3)c2cc1C1CC1 [Example 176, (1Z)-4-{[5-cyclopropyl-2-(4-fluorophenyl)-3-(1H-imidazol-2-yl)-1-benzofuran-6-yl](methylsulfonyl)amino}-N′-hydroxybutanimidamide]	80 nM	20 nM	20 nM	146 nM	159 nM	12 nM	33 nM	36.5 nM	133 nM	36.5 nM	36.5 nM	27 fold	5 nM	134 nM	155 nM
CS(=O)(=O)N(CCCc1noc(=S)[nH]1)c1cc2oc(-c3ccc(F)cc3)c(-c3ncc[nH]3)c2cc1C1CC1 [Example 177, N-[5-cyclopropyl-2-(4-fluorophenyl)-3-(1H-imidazol-2-yl)-1-benzofuran-6-yl]-N-[3-(5-thioxo-4,5-dihydro-1,2,4-oxadiazol-3-yl)propyl]methanesulfonamide]	461 nM	23 nM	23 nM	427 nM	401 nM	30 nM	36 nM	32 nM	520 nM	32 nM	32 nM	10 fold	4 nM	38 nM	606 nM
CS(=O)(=O)N(CCCc1nnn[nH]1)c1cc2oc(-c3ccc(F)cc3)c(C3=NOCCN3)c2cc1C1CC1 [Example 180, N-[5-cyclopropyl-3-(5,6-dihydro-4H-1,2,4-oxadiazin-3-yl)-2-(4-fluorophenyl)-1-benzofuran-6-yl]-N-[3-(1H-tetrazol-5-yl)propyl]methanesulfonamide]	10000 nM	1000 nM	1000 nM	1000 nM	> 1000 nM	1000 nM	32 nM	1000 nM	10000 nM	1000 nM	1000 nM	6 fold	6 nM	34 nM	1000 nM
CS(=O)(=O)N(CCC/C(N)=N/O)c1cc2oc(-c3ccc(F)cc3)c(C3=NOCCN3)c2cc1C1CC1 [Example 181, (1Z)-4-{[5-cyclopropyl-3-(5,6-dihydro-4H-1,2,4-oxadiazin-3-yl)-2-(4-fluorophenyl)-1-benzofuran-6-yl](methylsulfonyl)amino}-N′-hydroxybutanimidamide]	702 nM	46 nM	46 nM	785 nM	594 nM	108 nM	56 nM	55.7 nM	611 nM	55.7 nM	55.7 nM	10 fold	10 nM	103 nM	548 nM
CS(=O)(=O)N(CCCc1noc(=O)[nH]1)c1cc2oc(-c3ccc(F)cc3)c(C3=NOCCN3)c2cc1C1CC1 [Example 182, N-[5-cyclopropyl-3-(5,6-dihydro-4H-1,2,4-oxadiazin-3-yl)-2-(4-fluorophenyl)-1-benzofuran-6-yl]-N-[3-(5-oxo-4,5-dihydro-1,2,4-oxadiazol-3-yl)propyl]methanesulfonamide]	5250 nM	310 nM	310 nM	1000 nM	> 1000 nM	661 nM	44 nM	356 nM	4230 nM	356 nM	356 nM	4 fold	7 nM	26 nM	1000 nM
CS(=O)(=O)N(CCCc1noc(=S)[nH]1)c1cc2oc(-c3ccc(F)cc3)c(C3=NOCCN3)c2cc1C1CC1 [Example 183, N-[5-cyclopropyl-3-(5,6-dihydro-4H-1,2,4-oxadiazin-3-yl)-2-(4-fluorophenyl)-1-benzofuran-6-yl]-N-[3-(5-thioxo-4,5-dihydro-1,2,4-oxadiazol-3-yl)propyl]methanesulfonamide]	2200 nM	88 nM	88 nM	1000 nM	> 1000 nM	306 nM	39 nM	104 nM	2060 nM	104 nM	104 nM	4 fold	6 nM	22 nM	1000 nM
CS(=O)(=O)N(CCCc1nsc(=O)[nH]1)c1cc2oc(-c3ccc(F)cc3)c(C3=NOCCN3)c2cc1C1CC1 [Example 184, N-[5-cyclopropyl-3-(5,6-dihydro-4H-1,2,4-oxadiazin-3-yl)-2-(4-fluorophenyl)-1-benzofuran-6-yl]-N-[3-(5-oxo-4,5-dihydro-1,2,4-thiadiazol-3-yl)propyl]methanesulfonamide]	1090 nM	28 nM	28 nM	539 nM	507 nM	84 nM	156 nM	69.7 nM	1870 nM	69.7 nM	69.7 nM	35 fold	17 nM	599 nM	353 nM
